# Laboratory results as given in patent publication US20140350081A1, “INSECT G-COUPLED RECEPTORS USEFUL AS TARGETS FOR INSECTICIDES AND COMPOUNDS AND REAGENTS IDENTIFIED USING THE SAME” (priority 2011, published 2014).
# Where two headings read alike, the source gives them in different places.
# Legend:
# AaDOP2 [1] = target: T1, AaDOP2 (Aedes aegypti, UniProt H6D5H2); test: cell-based
# Ae. aegypti L3 larvae [2] = test: whole plant or invertebrate; settings: Aedes aegypti
# Ae. aegypti L3 larvae [3] = settings: 400 μM, three independent experiments
# [4] = target: T2, human D1 dopamine receptor (hD1) (Homo sapiens, UniProt P21728); test: cAMP accumulation secondary assay, hD1-expressing cells; type: cell-based, H. sapiens
# T2 construct: expressed in transfected cells
# T2 sequence (P21728 whole entry): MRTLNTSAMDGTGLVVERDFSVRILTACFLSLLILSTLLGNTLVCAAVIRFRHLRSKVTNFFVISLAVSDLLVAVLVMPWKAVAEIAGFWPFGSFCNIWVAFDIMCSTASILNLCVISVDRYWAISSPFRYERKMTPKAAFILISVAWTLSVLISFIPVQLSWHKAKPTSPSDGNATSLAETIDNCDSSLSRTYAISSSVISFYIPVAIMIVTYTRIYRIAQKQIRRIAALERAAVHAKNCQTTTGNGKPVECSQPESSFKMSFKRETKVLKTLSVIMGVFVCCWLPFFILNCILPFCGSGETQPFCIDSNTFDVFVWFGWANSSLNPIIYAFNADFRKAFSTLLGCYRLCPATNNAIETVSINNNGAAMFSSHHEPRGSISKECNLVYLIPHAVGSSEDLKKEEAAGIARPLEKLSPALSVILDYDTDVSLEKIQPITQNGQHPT
# AaDOP2 [5] = target: T1, AaDOP2; test: LOPAC1280 antagonist screen in HEK-CRELuc-Aadop2 cells; type: cell-based; settings: 10 μM compound, 300 nM dopamine, quadruplicate
# Isdop2 [6] = target: T3, Isdop2 (Ixodes scapularis, UniProt A0ACM8DGL0); test: cAMP accumulation confirmation assay, cells stably expressing Isdop2; type: cell-based
# T3 sequence (A0ACM8DGL0 entry or part of it): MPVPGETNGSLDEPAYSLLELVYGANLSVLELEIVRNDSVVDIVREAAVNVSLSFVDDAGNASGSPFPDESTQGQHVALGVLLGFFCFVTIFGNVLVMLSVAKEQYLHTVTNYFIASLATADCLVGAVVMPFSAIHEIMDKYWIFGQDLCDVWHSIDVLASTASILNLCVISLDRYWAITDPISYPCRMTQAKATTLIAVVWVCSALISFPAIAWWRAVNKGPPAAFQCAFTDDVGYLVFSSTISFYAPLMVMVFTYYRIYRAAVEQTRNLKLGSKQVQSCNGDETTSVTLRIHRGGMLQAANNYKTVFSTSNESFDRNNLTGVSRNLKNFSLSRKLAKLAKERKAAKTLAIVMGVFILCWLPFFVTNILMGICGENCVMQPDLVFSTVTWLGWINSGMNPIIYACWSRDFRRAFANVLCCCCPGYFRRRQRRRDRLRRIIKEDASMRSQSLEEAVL
# AaDOP2 [7] = target: T1, AaDOP2
# Isdop2 [8] = target: T3, Isdop2; test: cell-based; settings: read-out: % Inhibition (of response to dopamine), Isdop2 screen
# Isdop1 [9] = target: T4, Isdop1 (Ixodes scapularis, UniProt A0ACM8FJJ0); test: cAMP accumulation confirmation assay, cells stably expressing Isdop1; type: cell-based
# Isdop1 [10] = target: T4, Isdop1; test: CRE-Luc reporter assay, HEK cells stably expressing Isdop1; type: cell-based
# AaDOP1 [11] = target: T5, AaDOP1 (Aedes aegypti, UniProt H6D5H1); settings: single dose 10 μM, transient expression, n=3
# T5 sequence (H6D5H1 entry or part of it): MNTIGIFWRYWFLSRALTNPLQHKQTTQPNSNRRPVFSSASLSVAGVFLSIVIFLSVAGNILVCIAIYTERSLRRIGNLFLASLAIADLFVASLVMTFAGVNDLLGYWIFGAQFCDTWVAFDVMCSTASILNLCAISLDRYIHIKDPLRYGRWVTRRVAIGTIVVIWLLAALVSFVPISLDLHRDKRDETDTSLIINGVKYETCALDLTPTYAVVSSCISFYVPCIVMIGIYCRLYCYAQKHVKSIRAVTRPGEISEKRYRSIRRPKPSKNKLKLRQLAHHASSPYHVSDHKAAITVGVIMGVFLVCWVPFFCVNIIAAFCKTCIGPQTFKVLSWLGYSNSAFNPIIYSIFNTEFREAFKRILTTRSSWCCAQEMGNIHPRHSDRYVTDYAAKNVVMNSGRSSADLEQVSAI
# Isdop2 [12] = target: T3, Isdop2; test: CRE-Luc reporter assay, HEK cells stably expressing Isdop2; type: cell-based
# AaDOP1 [13] = target: T5, AaDOP1; test: CRELuc reporter dose-response in HEK293 cells stably expressing AaDOP1; type: cell-based; settings: HEK293 cells stably expressing CRELuc reporter and AaDOP1
# AaDOP2 [14] = target: T1, AaDOP2; settings: single dose 10 μM, transient expression, n=3
# Ae. aegypti L3 larvae [15] = test: Ae. aegypti L3 concentration response and time course assays; type: in vivo, Aedes aegypti; settings: Aedes aegypti
# Description: Briefly, chemistries were diluted to appropriate concentration in water and added to the wells of 24-well plates containing 5 L3 stage Ae. aegypti larvae to achieve a final concentration of 400, 200, 100, 50 and 25 μM in 1 ml sterile RO water. Chemistries were tested in quadruplicate at each concentration. […] Results reported here represent a minimum of three independent CRC experiments (i.e., n=3).
# [16] = system: adult male Blatella germanica; test: Cockroach contact assay (topical application); type: in vivo; settings: 200 mM compound
# Method in brief: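 Adult male German cockroaches (Blatella germanica) were dosed by topical application of compound to the ventral thorax, giving an effective dose of 50-80 μg depending on compound. Each test was a single-point dose run in triplicate in 24-well plates. Insects were incubated at 22° C. and scored for mortality, with commercial insecticides included as positive controls.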
# AaDOP2 [17] = target: T1, AaDOP2; test: HTRF cAMP accumulation concentration response assay (Cisbio Dynamic 2); type: cell-based
# [18] = system: adult Reticulitermes flavipes; test: Termite immersion assay; type: in vivo; settings: Reticulitermes flavipes, immersion, adult termite; for mortality at 100 µM: 100 µM compound (Fipronil 500 μM); for mortality at 100000 µM: 100 mM compound (Fipronil 500 μM)
# Ae. aegypti larvae = test: whole plant or invertebrate; type: in vivo; settings: Aedes aegypti; 400 μM, L4 larvae, 24 hours post-treatment; read-out: average larval mortality
# Description: Single dose-point and dose response in vivo mosquito bioassays were used to assess the toxicity of selected AaDop2 receptor antagonists identified in the chemical screen. Larvae of Ae. aegypti (Liverpool strain) were reared under standard laboratory conditions on a 12 hr day/night cycle at 75% RH and 28° C., and bioassays were conducted at room temperature (22-24° C.). Larvae were transferred from standard rearing trays into six-well tissue culture plates (Corning, Inc. Corning, N.Y.) using a small plastic pipette. Ten L4-stage larvae were included per well, each containing five ml of de-ionized water and an assigned drug concentration. Controls were conducted similarly but lacked a drug treatment. Bioassays employed a double-blind experimental design, and larval mortality was scored 24 hr following administration of drugs. Single dose-point assays were conducted using 400 μM drug and included three biological replicates each consisting of 100 larvae.
# [19] = system: adult male Blatella germanica; test: Cockroach assay of Table 16 (title contact assay, text feeding assay); type: in vivo; settings: 200 mM compound
# [20] = 48 h, read-out: Toxicity to Aedes aegypti larvae (mortality) 48 hours, 400 μM, L3 larvae, three independent experiments
# [21] = 72 h, read-out: Toxicity to Aedes aegypti larvae (mortality) 72 hours, 400 μM, L3 larvae, three independent experiments
# T1 sequence (H6D5H2 entry or part of it): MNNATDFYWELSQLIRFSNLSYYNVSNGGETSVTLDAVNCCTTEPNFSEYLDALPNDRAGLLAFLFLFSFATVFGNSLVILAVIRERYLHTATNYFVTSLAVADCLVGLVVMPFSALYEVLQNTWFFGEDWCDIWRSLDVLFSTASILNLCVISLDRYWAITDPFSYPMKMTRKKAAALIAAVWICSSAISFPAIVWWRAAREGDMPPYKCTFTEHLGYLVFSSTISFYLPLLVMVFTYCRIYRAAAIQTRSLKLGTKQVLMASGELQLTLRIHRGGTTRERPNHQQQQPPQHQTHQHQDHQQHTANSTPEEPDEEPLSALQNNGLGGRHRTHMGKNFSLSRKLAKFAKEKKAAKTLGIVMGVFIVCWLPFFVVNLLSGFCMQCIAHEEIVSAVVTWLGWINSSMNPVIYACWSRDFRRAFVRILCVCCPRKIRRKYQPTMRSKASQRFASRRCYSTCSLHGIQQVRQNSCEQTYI
structure (smiles),measurement,setting,value
"CSc1ccc2c(c1)C(N1CCN(C)CC1)Cc1ccccc1S2 (centres unmarked) [Methiothepin, (1-methyl-4-(8-(methylthio)-10,11-dihydrodibenzo-[b,f]thiepin-10-yl)piperazines)]",IC50,AaDOP2 [1],0.014 ± 0.0051 µM
same,mortality at 400 µM,"Ae. aegypti L3 larvae [2]; 0.5 h, read-out: percent mortality 0.5 hr, 400 uM, L3 larvae, value for this scoring time",10%
same,mortality at 400 µM,"Ae. aegypti L3 larvae [2]; 1 h, read-out: percent mortality 1 hr, 400 uM, L3 larvae, per scoring time",0%
same,mortality at 400 µM,"Ae. aegypti L3 larvae [2]; 2 h, read-out: percent mortality 2 hr, 400 uM, L3 larvae, per scoring time",20%
same,mortality at 400 µM,"Ae. aegypti L3 larvae [2]; 3 h, read-out: mortality within three hours, 400 μM, L3 larvae",> 70%
same,mortality at 400 µM,"Ae. aegypti L3 larvae [2]; 3 h, read-out: percent mortality 3 hr, 400 uM, L3 larvae, per scoring time",0%
same,mortality at 400 µM,"Ae. aegypti L3 larvae [2]; 4 h, read-out: percent mortality 4 hr, 400 uM, L3 larvae, per scoring time",0%
same,mortality at 400 µM,"Ae. aegypti L3 larvae [2]; 24 h, read-out: percent mortality 24 hr, 400 uM, L3 larvae, per scoring time",0%
same,mortality at 400 µM,Ae. aegypti L3 larvae [2]; [20],100%
same,mortality at 400 µM,"Ae. aegypti L3 larvae [2]; 48 h, read-out: percent mortality 48 hr, 400 uM, L3 larvae, per scoring time",0%
same,mortality at 400 µM,"Ae. aegypti L3 larvae [2]; 72 h, read-out: Cumulative % Mortality (72 hrs), 400 uM, L3 larvae",100%
same,mortality at 400 µM,Ae. aegypti L3 larvae [2]; [21],100%
same,mortality at 400 µM,"Ae. aegypti L3 larvae [2]; 72 h, read-out: percent mortality 72 hr, 400 uM, L3 larvae, per scoring time",0%
same,Toxicity to Aedes aegypti larvae (mortality) 24 hours,Ae. aegypti L3 larvae [3],100%
same,IC50,[4],0.08 ± 0.011 µM
same,% of the SCH23390 effect,AaDOP2 [5],99%
same,IC50,Isdop2 [6],0.085 µM
same,Relative fold selectivity for AaDOP2 vs. hD1,AaDOP2 [7],5.7 fold
same,inhibition at 10 µM,Isdop2 [8],100%
same,IC50,Isdop1 [9],0.95 µM
NCCc1ccc(O)c(O)c1 [Dopamine],EC50,Isdop1 [10],~0.031 µM
same,"increase of intracellular cAMP, AaDOP1",AaDOP1 [11],2.7±0.6 fold
same,EC50,Isdop2 [12],~0.145 µM
same,EC50,AaDOP1 [13],0.0031 ± 0.0011 µM
same,"increase of intracellular cAMP, AaDOP2",AaDOP2 [14],48±14 fold
"CN(C)CCC=C1c2ccccc2CCc2ccccc21 [Amitriptyline, (3-(10,11-dihydro-5H-dibenzo[a,d][7]annulen-5-ylidene)-N,N-dimethylpropan-1-amine)]",LC50,Ae. aegypti L3 larvae [15],78 µM
same,mortality at 400 µM,"Ae. aegypti L3 larvae [2]; 24 h, read-out: Toxicity to Aedes aegypti larvae (mortality) 24 hours, 400 μM, L3 larvae, three independent experiments",63%
same,mortality at 400 µM,Ae. aegypti L3 larvae [2]; [20],87%
same,mortality at 400 µM,Ae. aegypti L3 larvae [2]; [21],93%
same,% Mortality 24 hrs,[16],5%
same,% Mortality 48 hrs,[16],20%
same,% Mortality 72 hrs,[16],25%
same,% Mortality 120 hrs,[16],30%
same,% Mortality 240 hrs,[16],35%
same,IC50,"AaDOP2 [17]; AaDOP2 expressing cells in the presence of dopamine, No Inhibition = <10% inhibition at 3 μM test compound, read-out: IC50 ± S.E.M. (nM), HTRF cAMP assay",6.5 ± 0.92 nM
same,IC50,"AaDOP2 [17]; Avg IC50 (μM), in vitro Concentration Response Curve assay, n = 2, relative to control antagonist Amitriptyline",7 nM
same,mortality at 100 µM,"[18]; 24 h, read-out: % Mortality 24 hrs",40%
same,mortality at 100000 µM,"[18]; 48 h, read-out: % Mortality 48 hrs",40%
same,mortality at 100000 µM,"[18]; 72 h, read-out: % Mortality 72 hrs",60%
same,mortality at 100000 µM,"[18]; 120 h, read-out: % Mortality 120 hrs",70%
same,mortality at 100 µM,"[18]; 240 h, read-out: % Mortality 240 hrs",70%
same,IC50,"[4]; read-out: IC50 value (at 100 nM dopamine for hD1), 100 nM dopamine, direct cAMP accumulation",0.47 ± 0.049 µM
same,% of the SCH23390 effect,AaDOP2 [5],90%
same,IC50,Isdop2 [6],2.9 µM
same,mortality at 400 µM,Ae. aegypti larvae,93%
same,% Mortality 24 hrs,[19],3%
same,% Mortality 48 hrs,[19],20%
same,% Mortality 72 hrs,[19],23%
same,% Mortality 120 hrs,[19],30%
same,Relative fold selectivity for AaDOP2 vs. hD1,AaDOP2 [7]; ratio of IC50 values hD1/AaDOP2,36 fold
same,IC50,"AaDOP2 [7]; read-out: Affinity (Aedesdop2), values equal the Table 3 IC50 values",0.014 µM
same,inhibition at 10 µM,Isdop2 [8],87%
same,IC50,Isdop1 [9],77 µM
